Experimental data from patent US20220381657A1, “METHOD FOR PREPARING BIOLOGICAL MATERIAL HAVING EXCELLENT LIGHT-TRANSMITTING PROPERTY” (RIKEN, priority 2016, published 2022).
Where a name gives a salt, the structure may show the parent alone. Read-outs that look alike come from different tables or passages of the source.

Assays:
[1] = Table 3

SMILES	pH (Table 4)	other results
Cl.N=C(N)Nc1ccc(C(=O)O)cc1 [#1249, 4-Guanidino benzoic acid hydrochloride]	4.22	–
CC(=O)N(CC(O)CO)c1c(I)c(C(=O)NCC(O)CO)c(I)c(C(=O)NCC(O)CO)c1I (stereo not shown) [Histodenz ™, reference compound]	–	OD400 [1]: 0.054; pH (Table 3): 7.3
O=C(O)[C@@H](O)c1ccccc1Cl [#0746, 2-Chloro-L-mandelic acid]	2.14	–
Cl.NC1CCSC1=O (racemic) [#1213, DL-Homocysteinethiolactone hydrochloride]	2.31	–
CC[n+]1ccccc1Br [#1562, 2-Bromo-1-ethylpyridinium tetrafluoroborate]	3.92	–
CN1CCN(Cc2ccc(C(=O)O)cc2)CC1 [#0916, 4-[(4-Methyl-1-piperazinyl)methyl]benzoic acid dihydrochloride]	2.80	–
O=C(O)/C=C/c1ccc(Cn2ccnc2)cc1 [#1108, Ozagrel hydrochloride hydrate]	4.92	–
O=C1O[C@H](CO)[C@@H](O)[C@H](O)[C@H]1O [#0963, D-(+)-Glucono-1,5-lactone]	2.69	–
CN(C)CCC(=O)O.Cl [#0702, 3-(Dimethylamino) propionic acid hydrochloride]	2.17	–
OCCCCBr [#1366, 4-Bromo-1-butanol (contains tetrahydrofuran)]	2.31	–
OCCCCCl [#1365, 4-Chloro-1-butanol (contains tetrahydrofuran)]	3.08	–
F[N+]12CC[N+](CCl)(CC1)CC2 [#1608, N-Fluoro-N′-(chloromethyl) triethylenediamine bis (tetrafluoroborate)]	5.19	–
O=C(O)CCCCBr [#0074, 5-Bromovaleric acid]	2.39	–
CCCCCCC(O)CO (stereo not shown) [#1109, 1,2-Octanediol]	6.00	–
Cl.NOCc1ccccc1 [#0429, O-Benzylhydroxylamine hydrochloride]	4.10	–
CCOC(=O)[C@H]1CC[C@H](O)CC1 [#0216, Ethyl trans-4-hydroxy-cyclohexanecarboxylate]	5.68	–
O=C(O)CCCCCl [#0062, 5-Chlorovaleric acid]	2.86	–
O=S(=O)(O)c1cccnc1 [#1165, Pyridine-3-sulfonic acid]	2.21	–
Cl.NC1(C(=O)O)CCC1 [#0473, 1-Aminocyclobutanecarboxylic acid hydrochloride]	2.18	–
O=C(O)[C@H](O)[C@@H](O)[C@H](O[C@@H]1O[C@H](CO)[C@H](O)[C@H](O)[C@H]1O)[C@H](O)CO [#1010, Lactobionic acid]	2.63	–

Now from value to molecule, other results behind:

pH (Table 4)	SMILES	other results
2.75	CSCCC(NC(C)=O)C(=O)O (racemic) [#0360, N-Acetyl- DL-methionine]	–
2.69	O=C(O)CC(CC(=O)O)C(=O)O [#1094, 1,2,3-Propanetri-carboxylic acid]	–
2.68	O=C(O)CC(S)C(=O)O (stereo not shown) [#1302, Thiomalic acid]	–
2.61	N#CCC(=O)O [#1569, Cyanoacetic acid]	–
2.34	O=C(O)CC(O)C(=O)O (racemic) [#1300, DL-Malic acid]	–
2.11	N[C@@H](CS(=O)(=O)O)C(=O)O [#0745, L-cysteic acid]	–
2.22	O=C(O)CCNCCNCCC(=O)O [#0936, Ethylenediamine-N,N′- dipropionic acid dihydrochloride]	–
2.74	CSCC[C@H](NC(C)=O)C(=O)O [#0350, N-Acetyl- L-methionine]	–
2.67	O=CNCC(=O)O [#0942, N-Formylglycine]	–
2.86	CC(=O)N[C@@H](CS)C(=O)O [#0346, N-Acetyl- L-cysteine]	–
2.74	O=C(O)C(C(=O)O)C1CCCC1 [#0762, Cyclopentyl malonic acid]	–
3.43	C=CCC(=O)O [#0073, 3-Butenoic acid]	–
3.66	O=C(O)CCO [#0155, 3-Hydroxypropionic acid]	–
